Data taken from the NIST ThermoML archive (doi:10.1021/je0503857).
Numbers after ± are expanded uncertainties.

Columns and labels:
[1] = Molar enthalpy of transition or fusion; conditions: DSC
[2] = for vapor or sublimation pressure: Liquid, Gas chromatography; for Normal melting temperature: Crystal, DTA
[3] = molar heat capacity at constant pressure; conditions: 298.15 K; 101.33 kPa; Crystal; Small sample (50 mg) DSC

Compound | Molar enthalpy of transition or fusion ([1]; Crystal) [kcal/mol] | vapor or sublimation pressure ([2]; 330 K) [kPa] | vapor or sublimation pressure ([2]; 360 K) [kPa] | vapor or sublimation pressure ([2]; 390 K) [kPa] | vapor or sublimation pressure ([2]; 420 K) [kPa] | vapor or sublimation pressure ([2]; 450 K) [kPa] | vapor or sublimation pressure ([2]; 480 K) [kPa] | vapor or sublimation pressure ([2]; 510 K) [kPa] | Normal melting temperature [2] [°C] | molar heat capacity at constant pressure [3] [J/K/mol] | Molar enthalpy of transition or fusion ([1]; Crystal 2) [kcal/mol] | vapor or sublimation pressure ([2]; 298.15 K) [kPa] | vapor or sublimation pressure ([2]; 300 K) [kPa]
CCCCCCCCCCCCCCCCCCCCCCO [1-docosanol] | 19.8 ± 0.526 | 5.89e-07 ± 7.1e-08 | 2.687e-05 ± 2.7e-06 | 0.000588 ± 5.9e-05 | 0.007063 ± 0.00071 | 0.0523 ± 0.0052 | 0.2627 ± 0.026 | 0.9664 ± 0.097 | 71.4 ± 0.5 | 625 ± 13 |  |  | 
CCCCCCCCCCCCCCCCCCCCO [1-eicosanol] |  | 3.509e-06 ± 3.6e-07 | 0.0001228 ± 1.2e-05 | 0.002151 ± 0.00021 | 0.02156 ± 0.0022 | 0.1382 ± 0.014 | 0.6201 ± 0.062 | 2.091 ± 0.21 | 64 ± 1 | 571.2 ± 11 | 18.7 ± 0.502 | 3.215e-08 ± 1.3e-08 | 4.345e-08 ± 1.4e-08
CCCCCCCCCCCCCCCCCO [1-heptadecanol] |  | 4.724e-05 ± 4.8e-06 | 0.001125 ± 0.00011 | 0.01426 ± 0.0014 | 0.1098 ± 0.011 | 0.571 ± 0.057 | 2.174 ± 0.22 | 6.457 ± 0.65 | 52.2 ± 0.5 | 490.5 ± 9.8 | 15.2 ± 0.406 | 6.86e-07 ± 7.9e-08 | 9.02e-07 ± 1e-07
CCCCCCCCCCCCCCCCCCCCCCCCCCO [1-hexacosanol] | 24.8 ± 0.645 | 1.78e-08 ± 1.2e-08 | 1.364e-06 ± 1.5e-07 | 4.614e-05 ± 4.6e-06 | 0.0007898 ± 7.9e-05 | 0.007756 ± 0.00078 | 0.0486 ± 0.0049 | 0.212 ± 0.021 | 80.0 ± 0.5 | 732.6 ± 15 |  | 6.401e-11 | 9.145e-11
CCCCCCCCCCCCCCCCCCO [1-octadecanol] |  |  |  |  |  |  |  |  | 52.5 ± 5 | 517.4 ± 10 | 16.6 ± 0.43 |  | 
CCCCCCCCCCCCCC(O)CCC (configuration not stated) [4-heptadecanol] | 8.53 ± 0.239 |  |  |  |  |  |  |  | 38.4 ± 0.5 | 472.6 ± 9.5 |  |  | 
CCCCCCCCCCCC(O)CCCCC (configuration not stated) [6-heptadecanol] | 11.7 ± 0.311 | 0.0001082 ± 1.1e-05 | 0.002283 ± 0.00023 | 0.02614 ± 0.0026 | 0.1853 ± 0.019 | 0.901 ± 0.09 | 3.255 ± 0.33 | 9.287 ± 0.93 | 42.7 ± 0.5 | 472.6 ± 9.5 |  | 1.813e-06 ± 1.9e-07 | 2.363e-06 ± 2.5e-07
CCCCCCCCCCC(O)CCCCCC (configuration not stated) [7-heptadecanol] | 6.88 ± 0.215 | 0.0001153 ± 1.2e-05 | 0.002406 ± 0.00024 | 0.0273 ± 0.0027 | 0.192 ± 0.019 | 0.9282 ± 0.093 | 3.337 ± 0.33 | 9.481 ± 0.95 | 41.2 ± 0.5 | 472.6 ± 9.5 |  | 1.959e-06 ± 2.1e-07 | 2.552e-06 ± 2.7e-07
CCCCCCCCC(O)CCCCCCCC [9-heptadecanol] | 10.3 ± 0.287 | 0.0001127 ± 1.1e-05 | 0.002368 ± 0.00024 | 0.02704 ± 0.0027 | 0.1913 ± 0.019 | 0.929 ± 0.093 | 3.354 ± 0.34 | 9.568 ± 0.96 | 57.1 ± 0.5 | 472.6 ± 9.5 |  | 1.895e-06 ± 2e-07 | 2.471e-06 ± 2.6e-07
CC(C)CCC[C@@H](C)[C@H]1CC[C@H]2[C@@H]3CC=C4C[C@@H](O)CC[C@]4(C)[C@H]3CC[C@]12C [.DELTA.5-cholesten-3β-ol] |  | 1.71e-08 ± 1.2e-08 | 1.132e-06 ± 1.2e-07 | 3.397e-05 ± 3.4e-06 | 0.0005237 ± 5.3e-05 | 0.004678 ± 0.00047 | 0.02685 ± 0.0027 | 0.1078 ± 0.011 |  |  |  | 7.557e-11 | 1.065e-10
